Patent publication US7713957B2, “Pharmaceutical composition containing gabapentin or pregabalin and N-type calcium channel antagonist” (Ajinomoto Co., Inc., priority 2002, dated 2010)
Like-named read-outs stand apart in the source and are kept apart here.

Experiments:
[1] = target: T1, N-type calcium channel (Homo sapiens, UniProt Q00975); assay: Antagonistic activity on N-type calcium channel (fluorescence dye method, IMR-32 cells); format: cell-based; settings: 10 μM test compound, 60 mM KCl stimulation, 1 μM Nifedipine, read-out: Antagonistic activity on N-type calcium channels at 10 μM Inhibition rate (%)
T1 construct: host or cells: IMR-32 human neuroblastoma cells, differentiated with dibutyl cAMP and 5-bromodeoxyuridine for 10 to 14 days
T1 sequence (Q00975 whole entry): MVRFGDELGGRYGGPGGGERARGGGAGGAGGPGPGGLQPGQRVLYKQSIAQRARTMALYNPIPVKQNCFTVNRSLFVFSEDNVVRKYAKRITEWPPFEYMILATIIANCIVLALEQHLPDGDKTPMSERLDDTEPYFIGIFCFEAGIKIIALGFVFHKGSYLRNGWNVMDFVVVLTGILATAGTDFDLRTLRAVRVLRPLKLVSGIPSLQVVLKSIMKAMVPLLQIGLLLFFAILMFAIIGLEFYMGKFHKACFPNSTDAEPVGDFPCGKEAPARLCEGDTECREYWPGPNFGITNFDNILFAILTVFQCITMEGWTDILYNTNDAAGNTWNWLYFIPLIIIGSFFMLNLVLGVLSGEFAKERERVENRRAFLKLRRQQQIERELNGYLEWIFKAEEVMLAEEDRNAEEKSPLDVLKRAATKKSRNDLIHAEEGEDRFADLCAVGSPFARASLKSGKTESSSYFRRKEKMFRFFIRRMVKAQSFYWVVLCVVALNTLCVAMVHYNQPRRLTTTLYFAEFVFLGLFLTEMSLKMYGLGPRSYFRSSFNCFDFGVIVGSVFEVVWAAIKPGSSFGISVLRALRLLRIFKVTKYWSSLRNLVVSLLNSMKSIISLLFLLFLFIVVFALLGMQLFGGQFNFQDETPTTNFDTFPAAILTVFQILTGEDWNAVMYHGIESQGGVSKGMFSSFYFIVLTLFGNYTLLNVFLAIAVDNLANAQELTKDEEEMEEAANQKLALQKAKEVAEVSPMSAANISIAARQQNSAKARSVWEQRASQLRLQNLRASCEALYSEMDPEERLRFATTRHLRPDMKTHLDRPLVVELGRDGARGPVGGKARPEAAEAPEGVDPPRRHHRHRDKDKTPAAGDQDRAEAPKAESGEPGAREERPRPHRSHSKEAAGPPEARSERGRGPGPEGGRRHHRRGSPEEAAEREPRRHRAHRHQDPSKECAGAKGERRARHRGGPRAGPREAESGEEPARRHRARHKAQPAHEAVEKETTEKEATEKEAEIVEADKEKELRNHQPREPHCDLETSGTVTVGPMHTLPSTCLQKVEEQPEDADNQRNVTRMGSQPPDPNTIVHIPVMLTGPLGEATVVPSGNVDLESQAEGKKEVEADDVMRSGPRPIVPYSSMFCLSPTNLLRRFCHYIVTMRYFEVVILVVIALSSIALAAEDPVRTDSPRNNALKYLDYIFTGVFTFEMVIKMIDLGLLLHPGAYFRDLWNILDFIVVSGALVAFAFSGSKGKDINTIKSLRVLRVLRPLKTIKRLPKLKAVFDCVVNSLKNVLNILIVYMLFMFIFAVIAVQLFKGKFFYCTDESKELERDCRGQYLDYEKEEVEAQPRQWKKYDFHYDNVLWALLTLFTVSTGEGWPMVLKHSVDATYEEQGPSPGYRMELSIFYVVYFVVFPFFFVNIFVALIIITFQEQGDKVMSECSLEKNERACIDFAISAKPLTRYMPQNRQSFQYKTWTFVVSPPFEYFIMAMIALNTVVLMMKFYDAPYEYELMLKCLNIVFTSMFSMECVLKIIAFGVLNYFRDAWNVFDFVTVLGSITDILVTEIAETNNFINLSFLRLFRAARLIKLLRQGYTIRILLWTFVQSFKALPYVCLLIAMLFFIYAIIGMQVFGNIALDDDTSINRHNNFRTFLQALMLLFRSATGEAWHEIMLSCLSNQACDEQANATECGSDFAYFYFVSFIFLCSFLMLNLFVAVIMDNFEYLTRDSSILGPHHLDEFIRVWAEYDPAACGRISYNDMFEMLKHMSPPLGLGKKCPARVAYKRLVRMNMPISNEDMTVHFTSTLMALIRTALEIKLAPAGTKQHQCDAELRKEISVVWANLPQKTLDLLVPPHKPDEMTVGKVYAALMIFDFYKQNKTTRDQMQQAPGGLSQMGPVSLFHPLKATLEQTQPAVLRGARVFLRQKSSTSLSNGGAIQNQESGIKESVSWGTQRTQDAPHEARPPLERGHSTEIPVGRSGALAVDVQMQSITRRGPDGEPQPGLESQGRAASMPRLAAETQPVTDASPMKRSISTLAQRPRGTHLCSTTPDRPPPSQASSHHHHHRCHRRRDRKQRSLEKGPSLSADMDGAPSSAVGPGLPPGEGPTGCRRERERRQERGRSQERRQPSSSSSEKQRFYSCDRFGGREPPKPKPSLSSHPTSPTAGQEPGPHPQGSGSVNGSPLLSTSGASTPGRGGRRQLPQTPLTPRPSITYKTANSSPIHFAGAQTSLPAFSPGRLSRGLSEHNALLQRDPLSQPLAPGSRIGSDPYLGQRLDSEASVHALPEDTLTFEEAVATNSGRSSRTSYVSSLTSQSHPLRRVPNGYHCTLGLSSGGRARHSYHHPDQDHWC
T1 sequence (Q02641 whole entry partner): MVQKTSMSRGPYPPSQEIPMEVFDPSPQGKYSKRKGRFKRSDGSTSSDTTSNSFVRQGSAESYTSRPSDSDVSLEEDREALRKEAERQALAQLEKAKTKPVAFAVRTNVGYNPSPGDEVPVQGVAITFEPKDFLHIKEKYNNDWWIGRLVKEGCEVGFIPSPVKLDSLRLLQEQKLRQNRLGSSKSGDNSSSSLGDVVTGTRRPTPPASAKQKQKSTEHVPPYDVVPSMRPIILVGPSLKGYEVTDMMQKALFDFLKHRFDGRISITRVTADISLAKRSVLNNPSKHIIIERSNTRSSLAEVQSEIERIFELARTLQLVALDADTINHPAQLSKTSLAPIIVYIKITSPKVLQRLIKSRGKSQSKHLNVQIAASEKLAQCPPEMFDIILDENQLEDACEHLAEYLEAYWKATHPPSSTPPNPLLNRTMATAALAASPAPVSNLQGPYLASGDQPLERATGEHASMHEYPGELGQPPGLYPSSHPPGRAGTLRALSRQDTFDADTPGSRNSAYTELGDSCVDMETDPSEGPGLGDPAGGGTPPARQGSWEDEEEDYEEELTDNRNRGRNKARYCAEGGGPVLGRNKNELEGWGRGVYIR
T1 sequence (P54289 25-956 partner limits assumed): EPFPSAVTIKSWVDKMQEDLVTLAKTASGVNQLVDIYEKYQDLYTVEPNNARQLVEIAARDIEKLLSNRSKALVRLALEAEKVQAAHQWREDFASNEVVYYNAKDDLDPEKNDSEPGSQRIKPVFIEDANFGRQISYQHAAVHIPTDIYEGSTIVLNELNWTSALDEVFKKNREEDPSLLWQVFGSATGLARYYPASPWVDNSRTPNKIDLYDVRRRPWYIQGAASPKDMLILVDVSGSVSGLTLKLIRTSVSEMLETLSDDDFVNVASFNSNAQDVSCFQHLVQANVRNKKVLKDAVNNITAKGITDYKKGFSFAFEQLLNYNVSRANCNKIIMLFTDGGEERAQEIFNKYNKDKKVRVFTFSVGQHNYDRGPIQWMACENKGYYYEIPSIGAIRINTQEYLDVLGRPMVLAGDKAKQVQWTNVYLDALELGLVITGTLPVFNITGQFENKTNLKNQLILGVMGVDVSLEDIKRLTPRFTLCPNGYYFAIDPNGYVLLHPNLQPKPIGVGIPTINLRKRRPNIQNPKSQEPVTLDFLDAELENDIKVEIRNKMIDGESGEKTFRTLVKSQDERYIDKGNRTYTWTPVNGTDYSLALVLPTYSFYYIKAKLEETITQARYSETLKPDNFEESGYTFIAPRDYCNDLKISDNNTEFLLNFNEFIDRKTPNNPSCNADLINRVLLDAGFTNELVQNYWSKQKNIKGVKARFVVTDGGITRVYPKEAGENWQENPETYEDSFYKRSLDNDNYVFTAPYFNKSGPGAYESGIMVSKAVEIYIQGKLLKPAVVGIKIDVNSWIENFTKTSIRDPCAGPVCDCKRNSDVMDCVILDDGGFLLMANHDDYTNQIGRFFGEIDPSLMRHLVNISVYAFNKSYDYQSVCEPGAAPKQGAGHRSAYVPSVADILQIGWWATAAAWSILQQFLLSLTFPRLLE
T1 sequence (P54289 957-1103 partner limits assumed): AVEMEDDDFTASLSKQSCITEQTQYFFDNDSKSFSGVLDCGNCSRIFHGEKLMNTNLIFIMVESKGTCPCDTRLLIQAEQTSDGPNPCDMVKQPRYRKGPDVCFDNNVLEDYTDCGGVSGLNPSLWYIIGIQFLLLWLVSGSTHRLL
Procedure: Antagonistic Activity on N-Type Calcium Channel (Fluorescence Dye Method)
Human neuroblastoma cells IMR-32 were obtained from ATCC (American Type Culture Collection). The medium used was a Phenol Red-free Eagle minimum essential medium containing earle's salts supplement (GIBCO) supplemented with 2 mM of L-glutamine (GIBCO), 1 mM of sodium pyruvate (pH 6.5) (GIBCO), antibiotic/antimycotic mixture (GIBCO) and 10% fetal calf serum (Cell Culture Technologies). 3 ml of 1×10^5 cells/ml IMR-32 cells were spread on the glass bottom of a dish (Iwaki Glsss Co., Ltd.) having a diameter of 35 mm which had been treated with poly-L-lysin (SIGMA) and collagen (COLLAGEN VITROGEN 100; Collagen Co.). After the culture for 1 day, 1 mM (final concentration) of dibutyl cAMP and 2.5 μM (final concentration) of 5-bromodeoxyuridine (SIGMA) were added. After the culture for additional 10 to 14 days, the cells were subjected to the activity determination.
The medium for IMR-32 cells thus prepared was replaced with 1 ml of Phenol Red-free and earle's salts supplemented Eagle minimum essential medium (GIBCO) containing 2.5 μM fura-2/AM (Dojin Kagaku, Co.), and the incubation was conducted at 37° C. for 30 minutes. […] Antagonistic activity on N-type calcium channel was determined and analyzed using a fluorescence microscope (Nikon Corporation) and an image analysis device ARGUS 50 (Hamamatsu Photonics). […]

[2] = tested on: Sprague-Dawley rats; assay: Formalin test in rat pain models (flinching action, second phase); format: in vivo
Procedure: Analgesic activities were determined in the formalin test. Four test groups [a control group (given a saline solution) and groups given 30, 100 and 300 mg/kg of gabapentin] each composed of 6 to 7 male Sprague-Dawley rats (SD rats, 9 weeks old) were used for the experiment. Gabapentin was dissolved in a saline solution.
4 ml/kg of a saline solution or gabapentin was orally administered to the rats. Three hours after, the rats were tranquilized with halothane, and 2.5% formalin solution (100 μl) was injected subcutaneously to dorsal surface of the left hindpaw. Immediately thereafter, the rats were awaken from the anesthesia. […] The number of times of retracting action, i.e., flinching action of the hindpaw in which formalin had been injected, was counted for 1 minute at an interval of one minute until 5 minutes after the formalin injection, and for 1 minute at an interval of 5 minutes from 10 to 60 minutes after the injection. […] The total number of times of the flinching action observed 10 to 60 minutes after the formalin injection (the second phase) was taken as the index of the pain action.
Analgesic activities were determined in the formalin test. Four test groups [a control group, a group given the compound A (the compound of Referential Example 11: 3 mg/kg), a group given 100 mg/kg of gabapentin and a group given a combination of 3 mg/kg of the compound A and 100 mg/kg of gabapentin] each composed of 6 to 7 male Sprague-Dawley rats (SD rats, 9 weeks old) were used for the experiment. The administration volume to each group was as follows. In the control group, 5 ml/kg of 0.5% tragacanth solution and 4 ml/kg of a saline solution were given orally to the rats. In the group given the compound A, 5 ml/kg of the compound A suspended in 0.5% tragacanth solution and 4 ml/kg of a saline solution were given orally to them. In the group given gabapentin, 5 ml/kg of 0.5% tragacanth solution and 4 ml/kg of gabapentin dissolved in a saline solution were given orally to them. In the group given a combination of the compound A and gabapentin, 5 ml/kg of the compound A suspended in 0.5% tragacanth solution and 4 ml/kg of gabapentin dissolved in a saline solution were given orally to them.
Analgesic activities were determined in the formalin test. Four test groups [a control group, a group given the compound B (the compound of Referential Example 71: 3 mg/kg), a group given 100 mg/kg of gabapentin and a group given a combination of 3 mg/kg of the compound B and 100 mg/kg of gabapentin] each composed of 6 male Sprague-Dawley rats (SD rats, 9 weeks old) were used for the experiment. The administration volume to each group was as follows. In the control group, 3 ml/kg of polyethylene glycol 400 (PEG) and 4 ml/kg of a saline solution were given orally to the rats. In the group given the compound B, 3 ml/kg of the compound B dissolved in PEG and 4 ml/kg of a saline solution were given orally to them. In the group given gabapentin, 3 ml/kg of PEG and 4 ml/kg of gabapentin dissolved in a saline solution were given orally to them. In the group given the combination of compound B and gabapentin, 3 ml/kg of the compound B dissolved in PEG and 4 ml/kg of gabapentin dissolved in a saline solution were given orally to them.
Analgesic activities were determined in the formalin test. Four test groups [a control group (given a saline solution) and groups given 10, 30 and 100 mg/kg of pregabalin] each composed of 6 male Sprague-Dawley rats (SD rats, 9 weeks old) were used for the experiment. Pregabalin was dissolved in a saline solution. 4 ml/kg of a saline solution or pregabalin was orally administered to the rats.
Analgesic activities were determined in the formalin test.

[3] = clinical use; cited from earlier work
[4] = patients with post-herpetic neuralgia (Acta Neurol. Scand. 101:359-371, 2000); cited from earlier work
[5] = cited from earlier work

`CC(C)(C)CC(=O)NCCCNC(=O)C=C1c2ccccc2C=Cc2ccccc21` [Example 41] showed an inhibition at 10 µM [1] of 76%.
For `CC(C)(C)C(=O)NCCC(=O)N1CCC(=C2c3ccccc3C=Cc3ccccc32)CC1` [Referential Example 11, N-{3-[4-(5H-dibenzo[a, d] [7]annulen-5-ylidene)-1-piperidinyl]-3-oxopropyl}-2,2-dimethylpropanamide], the “inhibiting ratio of flinches” value ([2]; Example 2, 3 mg/kg oral, suspended in 0.5% tragacanth) was 38%.
For `CC(C)(C)C(=O)N[C@H](CO)CCC(=O)N1CCC(=C2c3ccccc3C=Cc3ccccc32)CC1` [Referential Example 71, (S)-N-[4-[4-(5H-dibenzo[a,d] [7]annulen-5-ylidene)-1-piperidinyl]-1-(hydroxylmethyl)-4-oxobutyl]-2.2-dimethylpropanamide], the “inhibiting ratio of flinches” value ([2]; Example 3, 3 mg/kg oral, dissolved in PEG) was 16% and the “inhibiting ratio of flinches” value ([2]; Example 5, 3 mg/kg oral, dissolved in PEG) was 7%.
For `NCC1(CC(=O)O)CCCCC1` [gabapentin, 1-(aminomethyl)-cyclohexaneacetic acid], the side-effects [3] is given as “somnolence and dizziness”, the treatment effectiveness [4] is given as “approximately 60%” and the “inhibiting ratio of flinches” value ([2]; Example 1, 30 mg/kg oral, vs control group) is given as 11%. The “inhibiting ratio of flinches” value ([2]; Example 1, 100 mg/kg oral, vs control group) was 42%, the “inhibiting ratio of flinches” value ([2]; Example 1, 300 mg/kg oral, vs control group) was 47% and the “inhibiting ratio of flinches” value ([2]; Example 2, 100 mg/kg oral) was 47%. The “inhibiting ratio of flinches” value ([2]; Example 3, 100 mg/kg oral) was 59% and the “motor function of the body” value ([5]; whole body administration of 300 mg/kg or more) was “significant decrease in motor function of the body”.
For `CC(C)C[C@H](CN)CC(=O)O` [pregabalin, (S)-3-(aminomethyl)-5-methylhexanoic acid], the side-effects [3] is given as “somnolence and dizziness”, the “inhibiting ratio of flinches” value ([2]; Example 4, 10 mg/kg oral, vs control group) is given as 31% and the “inhibiting ratio of flinches” value ([2]; Example 4, 30 mg/kg oral, vs control group) is given as 61%. The “inhibiting ratio of flinches” value ([2]; Example 4, 100 mg/kg oral, vs control group) was 61%, the “inhibiting ratio of flinches” value ([2]; Example 5, 30 mg/kg oral) was 48% and the “motor function of the body” value ([5]; whole body administration of 100 mg/kg or more) was “significant decrease in motor function of the body”.
